Laboratory results: ChEMBL document CHEMBL2074353, “Reversal of the human and murine multidrug-resistance phenotype with megestrol acetate” (Cancer Chemother Pharmacol, 1994)

Legend:
[1] = target: T1, ATP-dependent translocase ABCB1 (Homo sapiens, UniProt P08183); experiment: TP_TRANSPORTER: increase in Doxorubicin intracellular accumulation (Doxorubicin: […], Megestrol acetate: 25 uM) in MCF-7/ADR cells, flow cytometry; type: functional, cell-based; conditions: nci/adr-res
[2] = target: T1, ATP-dependent translocase ABCB1; experiment: TP_TRANSPORTER: increase in Doxorubicin intracellular accumulation (Doxorubicin: […], Megestrol acetate: 50 uM) in HCT-116/VM46 cells, flow cytometry; type: functional, cell-based; conditions: hct-116/vm46, 50 µM

T1 sequence (P08183 whole entry): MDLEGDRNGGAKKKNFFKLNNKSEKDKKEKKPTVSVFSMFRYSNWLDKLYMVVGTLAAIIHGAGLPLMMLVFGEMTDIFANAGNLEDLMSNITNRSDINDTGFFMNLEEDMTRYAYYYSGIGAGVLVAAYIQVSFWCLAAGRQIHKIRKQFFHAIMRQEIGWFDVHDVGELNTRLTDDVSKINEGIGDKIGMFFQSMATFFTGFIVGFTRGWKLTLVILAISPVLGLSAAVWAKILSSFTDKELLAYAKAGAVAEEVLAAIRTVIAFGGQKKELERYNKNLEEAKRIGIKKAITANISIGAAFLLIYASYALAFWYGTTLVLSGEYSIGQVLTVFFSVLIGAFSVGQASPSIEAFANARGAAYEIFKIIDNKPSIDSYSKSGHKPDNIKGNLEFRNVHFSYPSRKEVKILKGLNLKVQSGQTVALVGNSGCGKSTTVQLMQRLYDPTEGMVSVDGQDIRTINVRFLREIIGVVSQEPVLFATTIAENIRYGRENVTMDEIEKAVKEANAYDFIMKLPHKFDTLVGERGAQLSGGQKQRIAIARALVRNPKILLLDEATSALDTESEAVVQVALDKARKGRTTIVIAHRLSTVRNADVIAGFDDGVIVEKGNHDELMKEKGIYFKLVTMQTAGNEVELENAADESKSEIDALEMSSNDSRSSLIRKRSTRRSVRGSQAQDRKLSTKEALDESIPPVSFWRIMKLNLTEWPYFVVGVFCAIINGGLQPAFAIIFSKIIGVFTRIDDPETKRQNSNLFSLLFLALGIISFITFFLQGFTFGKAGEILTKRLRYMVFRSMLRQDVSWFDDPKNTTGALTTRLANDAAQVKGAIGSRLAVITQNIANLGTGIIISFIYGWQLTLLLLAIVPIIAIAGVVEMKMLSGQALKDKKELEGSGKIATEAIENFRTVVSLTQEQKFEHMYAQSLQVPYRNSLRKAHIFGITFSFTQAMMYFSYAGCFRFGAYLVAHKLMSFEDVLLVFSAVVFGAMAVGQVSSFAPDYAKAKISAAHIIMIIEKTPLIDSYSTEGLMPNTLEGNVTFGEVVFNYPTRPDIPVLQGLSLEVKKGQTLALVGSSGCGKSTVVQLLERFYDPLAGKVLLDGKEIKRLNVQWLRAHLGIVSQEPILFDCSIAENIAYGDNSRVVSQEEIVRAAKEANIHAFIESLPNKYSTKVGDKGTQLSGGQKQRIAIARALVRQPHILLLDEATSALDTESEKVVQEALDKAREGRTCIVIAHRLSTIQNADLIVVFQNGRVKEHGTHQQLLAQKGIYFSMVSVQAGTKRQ

## CC(=O)O[C@]1(C(C)=O)CC[C@H]2[C@@H]3C=C(C)C4=CC(=O)CC[C@]4(C)[C@H]3CC[C@@]21C [MEGESTROL ACETATE]
[1]
  Activity: inhibitor [+]
[2]
  Activity: inhibitor [+]
